Results on three sequences are retold here after article doi:10.1101/623967v1 (bioRxiv, 2019).

Assay type in all cases: physicochemical
Data set [1] is described as follows: pKFI determination: tryptophan fluorescence pH titration. The note with it: lipid:peptide 150:1; for pKFI in the presence of NaCl: 150 mM NaCl, POPC and POPC/POPS (9/1) gave similar pKFI; for effect of 150 mM NaCl on the pKFI: POPC vesicles, compared with no NaCl, result in words.
A short description of data set [2]: pKFI determination: tryptophan fluorescence pH titration with PS in the vesicles. The note with it: for PS50 (amount of PS needed to reach 50% of change in pKFI): hyperbolic fit (Eq. 2) of pKFI versus molar percent POPS, 0-20%.
A short description of data set [3]: Tryptophan fluorescence emission spectra at acidic and basic pH. The note with it: POPC, Trp fluorescence, λex 280 nm.
Assay in data set [4]: as above
The conditions noted are these: POPC/POPS (9/1), Trp fluorescence, λex 280 nm.

Setting [5] is: POPC/POPS vesicles, PS 0-20 mol%, lipid:peptide 200:1, 1 μM peptide.

Take “GKAGKAGLLGLEGLLGLPLGLLEGLWLGLELEGN [K2-ATRAM]”: the “pKFI in the presence of NaCl” value in data set [1] is listed as approximately 5.4. In addition, in data set [1], the “effect of 150 mM NaCl on the pKFI” value is recorded as “no change”. Besides, the “increase in the pKFI caused by PS” value in data set [2] (setting [5]) is approximately 0.4 pH units. The “PS50 (amount of PS needed to reach 50% of change in pKFI)” value in data set [2] worked out at 1.9 % PS. Also, the Fluorescence spectral maxima stood at 329.7 ± 1.2 nm in data set [3] (acidic pH (pH 4)), 342.1 ± 2.1 nm in data set [3] (basic pH (pH 8)), 320.2 ± 1.7 nm in data set [4] (acidic pH (pH 4)) and 331.7 ± 1.8 nm in data set [4] (basic pH (pH 8)).

For the sequence “GLAGLAGLLGLEGLLGLPLGLLEGLWLGLELEGN [ATRAM, acidity-triggered rational membrane (ATRAM) peptide]”, the “pKFI in the presence of NaCl” value in data set [1] is given as approximately 5.7. Besides, in data set [1], the “effect of 150 mM NaCl on the pKFI” value is reported as “decreased”. Moreover, the “effect of PS on the pKFI” value in data set [2] (POPC/POPS vesicles, seven PS levels between 0-20%, result in words) is reported as “not significantly affected”. The Fluorescence spectral maxima in data set [3] (acidic pH (pH 4)) was found to be 327.3 ± 0.7 nm; in data set [3] (basic pH (pH 8)) it was 341.1 ± 2.3 nm; in data set [4] (acidic pH (pH 4)) it was 330.8 ± 0.8 nm; in data set [4] (basic pH (pH 8)) it was 350.9 ± 1.0 nm.

Take “GYAGLAGLLGLEGLLGLPLGLLEGLWLGLELEGN [Y-ATRAM]”: the “pKFI in the presence of NaCl” value in data set [1] is reported as approximately 5.7. For the same sequence, the “effect of 150 mM NaCl on the pKFI” value in data set [1] was “decrease”. Further, the “decrease in the pKFI caused by PS” value in data set [2] (setting [5]) is approximately 0.3 pH units. Moreover, the “PS50 (amount of PS needed to reach 50% of change in pKFI)” value in data set [2] was 0.5 % PS. In addition, the Fluorescence spectral maxima in data set [3] (acidic pH (pH 4)) was 324.5 ± 2.9 nm; in data set [3] (basic pH (pH 8)), 343.9 ± 3.6 nm; in data set [4] (acidic pH (pH 4)), 320.5 ± 1.9 nm; in data set [4] (basic pH (pH 8)), 342.7 ± 2.3 nm.
